Values of other authors, collected in US20110105387A1 (priority 2009, published 2011).
≈ marks a conversion by molar mass, not a printed value.

Columns and labels:
[1] = literature
[2] = literature; remark: listed apart in the source

Row | water solubility [1] | time to attain peak concentrations ([2]; after oral dosing) | increase in AUC with a high-fat meal ([2]; high-fat meal, slower rate of absorption) | excreted in urine [2] | SMILES
1 | ~120 µg/mL (≈ 116 µM) | – | – | – | CO[C@H]1C[C@@H]2CC[C@@H](C)[C@@](O)(O2)C(=O)C(=O)N2CCCC[C@H]2C(=O)O[C@H]([C@H](C)C[C@@H]2CC[C@@H](OC(=O)C(C)(CO)CO)[C@H](OC)C2)CC(=O)[C@H](C)/C=C(\C)[C@@H](O)[C@@H](OC)C(=O)[C@H](C)C[C@H](C)/C=C/C=C/C=C/1C [CCI-779]
2 | – | ≤ 2 h | 35% | < 3% | CO[C@H]1C[C@@H]2CC[C@@H](C)[C@@](O)(O2)C(=O)C(=O)N2CCCC[C@H]2C(=O)O[C@H]([C@H](C)C[C@@H]2CC[C@@H](O)[C@H](OC)C2)CC(=O)[C@H](C)/C=C(\C)[C@@H](O)[C@@H](OC)C(=O)[C@H](C)C[C@H](C)/C=C/C=C/C=C/1C [rapamycin]
